In patent publication US11485762B2, “Compositions and methods for inhibition of L-plastin activity in osteoclasts to reduce bone loss” (University of Maryland, Baltimore, priority 2017, dated 2022):

What was measured:
Assay type in all cases: cell-based, mouse
[1] = system: endogenous LPL; assay: Phosphorylation of endogenous (cellular) LPL in osteoclasts (LPL immunoprecipitation, p-Serine immunoblot); conditions: for inhibitory effect on the phosphorylation of cellular LPL: sNT-LPL peptides, 3-4 hours; for inhibitory effect on the phosphorylation of cellular LPL / phosphorylation of endogenous LPL: bone particles and TNF-α; for phosphorylation of endogenous LPL: TAT-fused LPL peptides 150 nM, 3 hours
Protocol: Bone particles (60-80 μm in size) were prepared as described previously (Ma et at, 2010, J. Biol. Chem., 285: 29911-29924). After flushing the marrow cells for osteoclast differentiation as described above, long bones of mice (free of cells inside and muscles outside) were washed extensively with PBS and kept in ethanol until use. Long bones were air-dried in the hood and homogenized by a mini blender. Bone particles were sieved and used for experiments. Multinucleated osteoclasts were seen from day four onward. At this time cultures were added with bone particles (100 μg/ml media) for 3-4 hours or 12-14 hours in the presence of TNF-α (20 ng/ml). Some cultures were treated with 3-5 μg/ml TNFR1 antibody. Osteoclasts were preincubated with the TNFR1 antibody for 60-90 minutes before the addition of TNF-α to enhance the blocking effect. Osteoclasts incubated with bone particles for 3-4 or 12-14 hours in the presence of TNF-α were used for lysate preparations.
The vector pTAT-HA has an N-terminal 6-histidine leader (Nagahara et al., 1998, Nature Medicine, 4:1449-1452). […] For transduction with TAT-fused peptides (100-150 nM), osteoclasts were first kept in serum-free α-MEM for two hours. Afterward, TAT proteins of interest, bone particles, and TNF-α were added to cells in serum-free α-MEM Lysates were made from these cells for immunoprecipitation and immunoblotting analyses. Osteoclasts plated on dentine slices in the presence of TAT-proteins of interest and TNF-α for 3-6 hours or 12-14 hours were used for immunostaining or actin staining analyses. Osteoclast cultures treated only with TNF-α were used as controls.
Following various treatments, osteoclasts were washed three-times with cold PBS and lysed in a radioimmune precipitation buffer (RIPA; 10 mM Tris-HCl, pH 7.2, 150 mM NaCl, 1% deoxycholate, 1% Triton X-100, 0.1% SDS, 1% aprotinin, 2 mM PMSF, […], and 1% aprotinin). Cells were rocked on ice for 15 minutes and scraped off with a cell scraper. Cell lysates were centrifuged at 15,000 rpm for 5 minutes at 4° C., and the supernatant was saved. Protein contents were measured using Bio-Rad protein assay reagent. Equal amounts of lysate proteins (100-150 μg) were used for immunoprecipitations. Immunoprecipitations and Western blotting were done as described previously (Chellaiah et al., 1998, J. Biol. Chem., 273: 11908-11916; Chellaiah et al., 1996, Mol. Biol. Cell, 7: 743-753).
After cells were kept in the serum-free α-MEM medium for two hours, LPL peptides of interest were added to a final concentration of 100-150 nM to cells in serum-free media (Chellaiah et al, 2000, J. Biol. Chem., 275: 11993-12002). Osteoclasts transduced with peptides of interest and added with bone particles in the presence of TNF-α for 3-4 hours or 12-14 hours were used for lysate preparations. Cells plated on coverslips and treated with peptides were used for actin staining to detect podosomes. After transduction for 30 min., osteoclasts were re-plated on dentine slices with respective LPL peptide and TNF-α for 3-6 hours or 12-14 hours. These cells were used for Actin staining with rhodamine-phalloidin or immunostaining analyses (Chellaiah et al., 2000, J. Biol. Chem., 275: 11993-12002; Chellaiah et al., 2000, J. Cell. Biol., 148: 665-678; Chellaiah et al., 2003, J Biol Chem 278: 29086-29097).
Following various treatments, osteoclasts were washed three times with cold PBS and lysed in a Triton-containing lysis buffer as described (Chellaiah et al., 1996, Mol. Biol. Cell, 7: 743-753). Cells were rocked on ice for 15 minutes, and scraped off with a cell scraper. Cell lysates were centrifuged at 15,000 rpm for 5 minutes, at 4° C., and the supernatant was saved. Protein contents were measured using Bio-Rad protein assay reagent. Osteoclast cultures were also subjected to a trypan blue dye (Sigma T8154) exclusion test to determine the viability of osteoclasts after various treatments. […]

[2] = system: osteoclasts; assay: Osteoclast migration (transwell and phagokinesis assays)
From the text: Transwell migration was done essentially as reported previously (Chellaiah et al., 2000, J. Cell Biol., 148: 665-678). Osteoclasts that migrated to the underside of the transwell membrane were stained with hematoxylin stain. Dried filters ware cut out and mounted with a permount solution (Thomas Scientific, Swedesboro, N.J.) on a glass slide. Cells were viewed under X40 objective in an inverted microscope. Six fields per transwell insert were counted using a Zeiss microscope as described previously (Chellaiah et al., 2000, J. Biol. Chem., 275: 11993-12002). Data are presented as the number of cells per migrated field (mean±SD) from one experiment.
Cell migration (phagokinesis and transwell migration) assays were done as described previously (Chellaiah et al., 2000, J. Cell Biol., 148: 665-678). Osteoclasts transduced with sNT-LPL peptides (P1, P2, P5, and P6) were used for these assays. Three to four transwells were used for each treatment. Migrated cells at the bottom of the wells were counted in 3-4 independent fields/transwell filter. Data are presented as migrated cells/field (mean±SD). The experiment was repeated with three osteoclast preparations. In phagokinesis assay, cell motility was assessed by measuring the areas free of gold particles. By using a grided reticule (Boyce Scientific. Inc.) in the eyepiece of a Nikon microscope, areas free of gold particles were measured using a 10× objective. Areas free of gold particles were represented as area moved in mm^2 (Chellaiah et al., 2000, J. Cell Biol., 148: 665-678),

[3] = system: osteoclasts; assay: F-actin content by rhodamine phalloidin binding; conditions: for F-actin content: TAT-fused LPL peptides, dentine, TNF-α, versus basal level
Protocol: For the measurement of F-actin, osteoclasts transduced with TAT-LPL peptides of interest for 15 to 30 minutes were re-plated on dentine slices for 3 to 4 hours or 10-12 hours, respectively, in the presence of indicated TAT-fused peptides of interest and TNF-α. For each treatment four to six wells in 24 well, culture dishes were used. Cells were fixed and rhodamine phalloidin binding to F-actin was done as described (Chellaiah et al., 2000, J. Cell Biol., 148: 665-678; Chellaiah et al., 2000, J. Biol. Chem., 275: 11993-12002: Chellaiah et at, 2007, J. Biol. Chem., 282: 10104-10116),
Osteoclasts were transduced with LPL and control peptides. For each treatment four to six wells in 24 well culture dishes were used. Cells were fixed and rhodamine phalloidin binding to F-actin was done as described (Chellaiah et al., 1998, J. Biol. Chem., 273: 11908-11916; Chellaiah et al., 1996, Mol. Biol. Cell, 7: 743-753).

[4] = phagokinesis and transwell migration assays, sNT-LPL peptides
[5] = transwell migration, TAT-fused LPL peptides

Row | Molecule | inhibitory effect on the phosphorylation of cellular LPL [1] | migration [2, 4] | cellular levels of LPL ([1]; FIG. 8B and FIG. 13B (mouse and RAW-derived osteoclasts)) | F-actin level ([3]; sNT-LPL peptides, compared with P2, P5, and P6) | phosphorylation of endogenous LPL [1] | F-actin content [3] | migration [2, 5]
1 | MARGAVADEE [Peptide P2, TAT-fused sNT-LPL peptide, Ser-5 and Ser-7 substituted to Alanine (A5A7)] | No significant inhibitory effect | Neither the migration (FIG. 12A-FIG. 12C) nor the formation the podosomes (FIG. 12D) was affected | – | – | – | – | –
2 | MARGSVSDEE [Peptide P1, TAT-fused small molecular weight (10aa) amino-terminal LPL peptide, unsubstituted (S5S7)] | inhibition is significant | Neither the migration (FIG. 12A-FIG. 12C) nor the formation the podosomes (FIG. 12D) was affected | did not change | decrease was significant | – | – | –
3 | SRSGMVEEAD [Peptide P5, TAT-fused scrambled sNT-LPL peptide, control, reference compound] | No significant inhibitory effect | Neither the migration (FIG. 12A-FIG. 12C) nor the formation the podosomes (FIG. 12D) was affected | – | – | – | – | –
4 | FL-LPL: HA-TAT fused full-length L-plastin protein (70-75 kDa), purified from bacterial expression vector pTAT-HA (protein, UniProt P13796 1-627, looked up, full-length HA-TAT tag, HA-TAT fused full-length L-plastin protein (70-75 kDa), purified from bacterial expression vector pTAT-HA) MARGSVSDEEMMELREAFAKVDTDGNGYISFNELNDLFKAACLPLPGYRVREITENLMATGDLDQDGRISFDEFIKIFHGLKSTDVAKTFRKAINKKEGICAIGGTSEQSSVGTQHSYSEEEKYAFVNWINKALENDPDCRHVIPMNPNTNDLFNAVGDGIVLCKMINLSVPDTIDERTINKKKLTPFTIQENLNLALNSASAIGCHVVNIGAEDLKEGKPYLVLGLLWQVIKIGLFADIELSRNEALIALLREGESLEDLMKLSPEELLLRWANYHLENAGCNKIGNFSTDIKDSKAYYHLLEQVAPKGDEEGVPAVVIDMSGLREKDDIQRAECMLQQAERLGCRQFVTATDVVRGNPKLNLAFIANLFNRYPALHKPENQDIDWGALEGETREERTFRNWMNSLGVNPRVNHLYSDLSDALVIFQLYEKIKVPVDWNRVNKPPYPKLGGNMKKLENCNYAVELGKNQAKFSLVGIGGQDLNEGNRTLTLALIWQLMRRYTLNILEEIGGGQKVNDDIIVNWVNETLREAKKSSSISSFKDPKISTSLPVLDLIDAIQPGSINYDLLKTENLNDDEKLNNAKYAISMARKIGARVYALPEDLVEVNPKMVMTVFACLMGKGMKRV | – | – | – | – | basal level phosphorylation | substantial increase above the basal level | does not affect
5 | mutated FL-LPL: TAT-fused full-length L-plastin with Ser-5 and Ser-7 mutated to Ala-5 and Ala-7 (protein, UniProt P13796 1-627, looked up, variant S5A S7A, full-length HA-TAT tag) MARGAVADEEMMELREAFAKVDTDGNGYISFNELNDLFKAACLPLPGYRVREITENLMATGDLDQDGRISFDEFIKIFHGLKSTDVAKTFRKAINKKEGICAIGGTSEQSSVGTQHSYSEEEKYAFVNWINKALENDPDCRHVIPMNPNTNDLFNAVGDGIVLCKMINLSVPDTIDERTINKKKLTPFTIQENLNLALNSASAIGCHVVNIGAEDLKEGKPYLVLGLLWQVIKIGLFADIELSRNEALIALLREGESLEDLMKLSPEELLLRWANYHLENAGCNKIGNFSTDIKDSKAYYHLLEQVAPKGDEEGVPAVVIDMSGLREKDDIQRAECMLQQAERLGCRQFVTATDVVRGNPKLNLAFIANLFNRYPALHKPENQDIDWGALEGETREERTFRNWMNSLGVNPRVNHLYSDLSDALVIFQLYEKIKVPVDWNRVNKPPYPKLGGNMKKLENCNYAVELGKNQAKFSLVGIGGQDLNEGNRTLTLALIWQLMRRYTLNILEEIGGGQKVNDDIIVNWVNETLREAKKSSSISSFKDPKISTSLPVLDLIDAIQPGSINYDLLKTENLNDDEKLNNAKYAISMARKIGARVYALPEDLVEVNPKMVMTVFACLMGKGMKRV | – | – | – | – | basal level phosphorylation | more or less equal | does not affect
